Consider 31 substances from the OligoGym collection.

For the data set, the target named is HBV. The settings on record: ASO, HepG2, 0.07 µM.

Several values for one entry are separate records, joined by “and”; a condition that tells them apart may be missing. Equal values may be shown once. HELM strings list units from the 5' end as sugar, base in round brackets, then linkage (d deoxyribose, r ribose, m 2'-O-methyl, p phosphodiester). Methylation of C is not given here. [moe] = 2'-O-(2-methoxyethyl) (MOE); [cEt] = constrained ethyl (cEt); [sp] = phosphorothioate linkage

Consider “RNA1{[moe](A)[sp].[moe](A)[sp].[moe](C)[sp].[moe](T)[sp].[moe](G)[sp].d(G)[sp].d(A)[sp].d(G)[sp].d(C)[sp].d(C)[sp].d(A)[sp].d(C)[sp].d(C)[sp].d(A)[sp].[moe](G)[sp].[moe](C)[sp].[moe](A)}$$$$V2.0”, for which the target mRNA inhibition was 31% and 37%.
For the substance “RNA1{[moe](G)[sp].[moe](C)[sp].[moe](A)[sp].[moe](G)[sp].d(A)[sp].d(G)[sp].d(G)[sp].d(T)[sp].d(G)[sp].d(A)[sp].d(A)[sp].d(G)[sp].d(C)[sp].[moe](G)[sp].[moe](A)[sp].[moe](A)}$$$$V2.0”, the target mRNA inhibition was found to be 60%.
For “RNA1{[moe](C)[sp].[moe](A)[sp].d(G)[sp].d(A)[sp].d(G)[sp].d(G)[sp].d(T)[sp].d(G)[sp].d(A)[sp].d(A)[sp].d(G)[sp].[moe](C)[sp].[moe](G)[sp].[moe](A)[sp].[moe](A)[sp].[moe](G)[sp].[moe](T)}$$$$V2.0” the value was 61%; for “RNA1{[moe](A)[sp].[moe](T)[sp].[moe](T)[sp].d(T)[sp].d(A)[sp].d(T)[sp].d(G)[sp].d(C)[sp].d(C)[sp].d(T)[sp].d(A)[sp].d(C)[sp].d(A)[sp].[cEt](G)[sp].[cEt](C)[sp].[cEt](C)}$$$$V2.0”, 47% and 65%.
For “RNA1{[moe](A)[sp].[moe](A)[sp].[moe](C)[sp].[moe](C)[sp].[moe](A)[sp].[moe](C)[sp].d(T)[sp].d(G)[sp].d(A)[sp].d(A)[sp].d(C)[sp].d(A)[sp].d(A)[sp].d(A)[sp].d(T)[sp].[moe](G)[sp].[moe](G)}$$$$V2.0” the value was 60% and 45%; for “RNA1{[moe](G)[sp].[cEt](A)[sp].d(G)[sp].d(A)[sp].d(A)[sp].d(G)[sp].d(T)[sp].d(C)[sp].d(C)[sp].d(A)[sp].d(C)[sp].d(C)[sp].[cEt](A)[sp].[moe](C)[sp].[cEt](G)[sp].[moe](A)}$$$$V2.0”, 34% and 43%.
The same measure for “RNA1{[moe](G)[sp].[moe](A)[sp].d(T)[sp].d(G)[sp].d(A)[sp].d(G)[sp].d(G)[sp].d(C)[sp].d(A)[sp].d(T)[sp].d(A)[sp].[moe](G)[sp].[moe](C)[sp].[moe](A)[sp].[moe](G)[sp].[moe](C)}$$$$V2.0”: 57% and 33%.
For “RNA1{[moe](T)[sp].[moe](C)[sp].[moe](C)[sp].d(G)[sp].d(C)[sp].d(A)[sp].d(G)[sp].d(T)[sp].d(A)[sp].d(T)[sp].d(G)[sp].d(G)[sp].[moe](A)[sp].[moe](T)[sp].[moe](C)[sp].[moe](G)}$$$$V2.0”, the target mRNA inhibition was 65% and 72%.
Consider “RNA1{[moe](G)[sp].[moe](T)[sp].[moe](T)[sp].d(C)[sp].d(C)[sp].d(G)[sp].d(C)[sp].d(A)[sp].d(G)[sp].d(T)[sp].d(A)[sp].d(T)[sp].[moe](G)[sp].[moe](G)[sp].[moe](A)[sp].[moe](T)}$$$$V2.0”, for which the target mRNA inhibition is 51% and 65%.
The same measure for “RNA1{[moe](G)[sp].[moe](T)[sp].[moe](T)[sp].d(C)[sp].d(C)[sp].d(G)[sp].d(C)[sp].d(A)[sp].d(G)[sp].d(T)[sp].d(A)[sp].d(T)[sp].[moe](G)[sp].[moe](G)[sp].[moe](A)[sp].[moe](T)[sp].[moe](C)}$$$$V2.0”: 60% and 54%; for “RNA1{[moe](T)[sp].[moe](T)[sp].[moe](A)[sp].[moe](T)[sp].[moe](G)[sp].d(C)[sp].d(C)[sp].d(T)[sp].d(A)[sp].d(C)[sp].d(A)[sp].d(G)[sp].d(C)[sp].d(C)[sp].[moe](T)[sp].[moe](C)}$$$$V2.0”: 53% and 42%.
The same measure for “RNA1{[moe](T)[sp].[cEt](G)[sp].[cEt](C)[sp].d(A)[sp].d(G)[sp].d(A)[sp].d(G)[sp].d(G)[sp].d(T)[sp].d(G)[sp].d(A)[sp].d(A)[sp].d(G)[sp].[cEt](C)[sp].[cEt](G)[sp].[moe](A)}$$$$V2.0”: 71% and 73%; for “RNA1{[moe](T)[sp].[moe](T)[sp].d(A)[sp].d(T)[sp].d(G)[sp].d(C)[sp].d(C)[sp].d(T)[sp].d(A)[sp].d(C)[sp].d(A)[sp].[moe](G)[sp].[moe](C)[sp].[moe](C)[sp].[moe](T)[sp].[moe](C)}$$$$V2.0”: 44% and 46%.
For “RNA1{[moe](G)[sp].[moe](A)[sp].d(G)[sp].d(A)[sp].d(A)[sp].d(G)[sp].d(T)[sp].d(C)[sp].d(C)[sp].d(A)[sp].d(C)[sp].[moe](C)[sp].[moe](A)[sp].[moe](C)[sp].[moe](G)[sp].[moe](A)[sp].[moe](G)}$$$$V2.0” the value was 35% and 21%; for “RNA1{[moe](A)[sp].[moe](A)[sp].[moe](C)[sp].d(C)[sp].d(A)[sp].d(C)[sp].d(T)[sp].d(G)[sp].d(A)[sp].d(A)[sp].d(C)[sp].d(A)[sp].[moe](A)[sp].[moe](A)[sp].[moe](T)[sp].[moe](G)[sp].[moe](G)}$$$$V2.0”, 57% and 51%.
On to “RNA1{[moe](A)[sp].[moe](C)[sp].[moe](T)[sp].[moe](G)[sp].[moe](G)[sp].[moe](A)[sp].d(G)[sp].d(C)[sp].d(C)[sp].d(A)[sp].d(C)[sp].d(C)[sp].d(A)[sp].d(G)[sp].d(C)[sp].[moe](A)[sp].[moe](G)}$$$$V2.0”, for which the target mRNA inhibition was 66% and 46%.
Consider “RNA1{[moe](A)[sp].[cEt](C)[sp].[cEt](T)[sp].d(G)[sp].d(A)[sp].d(A)[sp].d(C)[sp].d(A)[sp].d(A)[sp].d(A)[sp].d(T)[sp].d(G)[sp].d(G)[sp].[cEt](C)[sp].[cEt](A)[sp].[moe](C)}$$$$V2.0”, for which the target mRNA inhibition is 67% and 64%.
With “RNA1{[moe](A)[sp].[moe](G)[sp].[moe](G)[sp].[moe](T)[sp].d(G)[sp].d(A)[sp].d(A)[sp].d(G)[sp].d(C)[sp].d(G)[sp].d(A)[sp].d(A)[sp].d(G)[sp].[moe](T)[sp].[moe](G)[sp].[moe](C)}$$$$V2.0”, the target mRNA inhibition was 3% and 19%.
For “RNA1{[moe](A)[sp].[moe](A)[sp].[moe](C)[sp].[moe](T)[sp].d(G)[sp].d(G)[sp].d(A)[sp].d(G)[sp].d(C)[sp].d(C)[sp].d(A)[sp].d(C)[sp].d(C)[sp].[moe](A)[sp].[moe](G)[sp].[moe](C)[sp].[moe](A)}$$$$V2.0” the value was 64% and 58%; for “RNA1{[moe](A)[sp].[moe](G)[sp].d(G)[sp].d(C)[sp].d(A)[sp].d(T)[sp].d(A)[sp].d(G)[sp].d(C)[sp].d(A)[sp].d(G)[sp].[moe](C)[sp].[moe](A)[sp].[moe](G)[sp].[moe](G)[sp].[moe](A)[sp].[moe](T)}$$$$V2.0”, 75% and 68%.
In the case of “RNA1{[moe](A)[sp].[moe](C)[sp].[moe](T)[sp].[moe](A)[sp].d(G)[sp].d(T)[sp].d(A)[sp].d(A)[sp].d(A)[sp].d(C)[sp].d(T)[sp].d(G)[sp].d(A)[sp].[moe](G)[sp].[moe](C)[sp].[moe](C)[sp].[moe](A)}$$$$V2.0”, the target mRNA inhibition was 62% and 58%.
For “RNA1{[moe](T)[sp].[moe](G)[sp].[moe](C)[sp].[moe](A)[sp].[moe](G)[sp].[moe](A)[sp].d(G)[sp].d(G)[sp].d(T)[sp].d(G)[sp].d(A)[sp].d(A)[sp].d(G)[sp].d(C)[sp].d(G)[sp].[moe](A)[sp].[moe](A)}$$$$V2.0” the value was 74% and 63%.
The same measure for “RNA1{[moe](C)[sp].[moe](A)[sp].[moe](A)[sp].d(T)[sp].d(T)[sp].d(T)[sp].d(A)[sp].d(T)[sp].d(G)[sp].d(C)[sp].d(C)[sp].d(T)[sp].[moe](A)[sp].[moe](C)[sp].[moe](A)[sp].[moe](G)[sp].[moe](C)}$$$$V2.0”: 33% and 41%.
For “RNA1{[moe](G)[sp].[moe](A)[sp].d(A)[sp].d(G)[sp].d(C)[sp].d(G)[sp].d(A)[sp].d(A)[sp].d(G)[sp].d(T)[sp].d(G)[sp].[moe](C)[sp].[moe](A)[sp].[moe](C)[sp].[moe](A)[sp].[moe](C)[sp].[moe](G)}$$$$V2.0”, the target mRNA inhibition was 79% and 74%.
The same measure for “RNA1{[moe](C)[sp].[moe](G)[sp].[moe](C)[sp].d(A)[sp].d(G)[sp].d(T)[sp].d(A)[sp].d(T)[sp].d(G)[sp].d(G)[sp].d(A)[sp].d(T)[sp].[moe](C)[sp].[moe](G)[sp].[moe](G)[sp].[moe](C)}$$$$V2.0”: 84% and 68%; for “RNA1{[moe](A)[sp].[moe](C)[sp].d(G)[sp].d(G)[sp].d(G)[sp].d(C)[sp].d(A)[sp].d(A)[sp].d(C)[sp].d(A)[sp].d(T)[sp].[moe](A)[sp].[moe](C)[sp].[moe](C)[sp].[moe](T)[sp].[moe](T)}$$$$V2.0”: 61% and 42%; for “RNA1{[moe](T)[sp].[moe](G)[sp].[moe](A)[sp].[moe](A)[sp].[moe](G)[sp].d(C)[sp].d(G)[sp].d(A)[sp].d(A)[sp].d(G)[sp].d(T)[sp].d(G)[sp].d(C)[sp].d(A)[sp].[moe](C)[sp].[moe](A)[sp].[moe](C)}$$$$V2.0”: 13% and 38%.
For “RNA1{[moe](T)[sp].[moe](T)[sp].[moe](A)[sp].d(T)[sp].d(G)[sp].d(C)[sp].d(C)[sp].d(T)[sp].d(A)[sp].d(C)[sp].d(A)[sp].d(G)[sp].[moe](C)[sp].[moe](C)[sp].[moe](T)[sp].[moe](C)[sp].[moe](C)}$$$$V2.0” the value was 61% and 54%.
For “RNA1{[moe](G)[sp].[moe](A)[sp].[moe](T)[sp].d(G)[sp].d(A)[sp].d(G)[sp].d(G)[sp].d(C)[sp].d(A)[sp].d(T)[sp].d(A)[sp].d(G)[sp].[moe](C)[sp].[moe](A)[sp].[moe](G)[sp].[moe](C)}$$$$V2.0”, the target mRNA inhibition is 39% and 38%.
As for “RNA1{[moe](G)[sp].[moe](A)[sp].[moe](T)[sp].[moe](G)[sp].[moe](A)[sp].[moe](G)[sp].d(G)[sp].d(C)[sp].d(A)[sp].d(T)[sp].d(A)[sp].d(G)[sp].d(C)[sp].d(A)[sp].d(G)[sp].[moe](C)[sp].[moe](A)}$$$$V2.0”, the target mRNA inhibition was 63% and 44%.
The same measure for “RNA1{[moe](G)[sp].[moe](T)[sp].[moe](G)[sp].[moe](C)[sp].[moe](A)[sp].d(G)[sp].d(A)[sp].d(G)[sp].d(G)[sp].d(T)[sp].d(G)[sp].d(A)[sp].d(A)[sp].d(G)[sp].[moe](C)[sp].[moe](G)[sp].[moe](A)}$$$$V2.0”: 68% and 62%.
